The record followed here is US20150196025A1, “BIOACTIVE HEME-HALOPEROXIDASE COMPOSITIONS AND METHODS OF THEIR USE” (Exoxemis, Inc., priority 2014, published 2015).

Assay type in all cases: cell-based, Staphylococcus aureus
For assay [1], the system named is S. aureus. Put plainly: Microbicidal plate assay, pEPO formulations aged two minutes to ninety-six hours with H2O2 (Examples 8 and 9). The conditions noted are these: 50 ug/mL pEPO, 20 mM additive; for microbicidal activity, Reaction 1 (aged two minutes): FIG. 9A; for microbicidal activity, Reaction 1 (aged two minutes) / microbicidal activity, Reaction 2 (aged twenty-four hours) / retention of microbicidal activity on ageing: 10 mM NaBr, 8.9 mM H2O2; for microbicidal activity, Reaction 2 (aged twenty-four hours): FIG. 9B; for retention of microbicidal activity on ageing: FIGS. 8A-8C, aged two minutes, twenty-four or ninety-six hours; for kill of the microbes added to aged formulations: aged for up to ninety-six hours before the addition of bacteria.

Assay [2] deals with S. aureus. Briefly: Microbicidal plate assay, pEPO with amine additives, aged 0 or 5 minutes with H2O2 (Example 7). The conditions noted are these: FIG. 7, 10 ug/mL pEPO, additive 3 mM, 2 mM NaBr; for microbicidal activity, Reaction 2 (aged 5 minutes with H2O2): 0.89 mM H2O2; for microbicidal activity, Reaction 1 (aged 0 min): 0.89 mM H2O2, one minute, 10^8 cfu/mL.
Assay [3] relates to S. aureus. Put plainly: Microbicidal plate assay, formulations aged 1 or 30 minutes before adding bacteria, with or without ethanolamine (Examples 5 and 6). The conditions noted are these: FIG. 6 compared to FIG. 5. Here is the method: S. aureus (10^9 cfu/mL, final concentration) was added and the reaction was incubated at room temperature for one minute. The reaction was stopped by plating. The plates were incubated overnight at 36° C.
The reactions described in Example 4 were repeated with Formulations F for plates 2-5 with the added condition that the formulations were incubated (aged) 1 or 30 minutes prior to adding the S. aureus bacteria. The reaction was incubated at room temperature for one minute after the addition of bacteria. An additional sample was added (100 μg/mL pEPO; 8.9 mM H2O2; 20 mM ethanolamine; and 20 mmM NaBr).
The reactions were carried out as described in Example 5.

Assay [4] deals with S. aureus. Briefly: Microbicidal plate assay, hydrogen peroxide/pEPO/ethanolamine versus neat hydrogen peroxide (Example 4).

As to `NCC(N)=O` [glycinamide, Glycinamide, reference compound], in the assay with S. aureus [1], the “microbicidal activity, Reaction 1 (aged two minutes)” value is “show initial microbicidal activity” and the “microbicidal activity, Reaction 2 (aged twenty-four hours)” value is given as “lose microbicidal activity after twenty-four hours”.
With `NCCCO` [propanolamine], in the assay with S. aureus [1], the “retention of microbicidal activity on ageing” value was “retain microbicidal activity up to at least ninety-six hours” and the “kill of the microbes added to aged formulations” value is “complete kill”.
For the molecule `COC(=O)CN` [glycine methyl ester, Glycine methyl ester, reference compound], in the assay with S. aureus [1], the “microbicidal activity, Reaction 1 (aged two minutes)” value is “show initial microbicidal activity” and the “microbicidal activity, Reaction 2 (aged twenty-four hours)” value is recorded as “lose microbicidal activity after twenty-four hours”.
On to `OCCNCCO` [diethanolamine], for which, in the assay with S. aureus [2], the “microbicidal activity, Reaction 2 (aged 5 minutes with H2O2)” value is on record as “maintained microbicidal activity” and the “microbicidal activity, Reaction 1 (aged 0 min)” value is recorded as “some microbicidal activity”.
In the case of `NCCO` [ethanolamine], in the assay on S. aureus [1], the “microbicidal activity, Reaction 2 (aged twenty-four hours)” value is given as “retain microbicidal activity for twenty-four hours”; the “retention of microbicidal activity on ageing” value is recorded as “retain microbicidal activity up to at least ninety-six hours”; the “kill of the microbes added to aged formulations” value is “complete kill”. Moreover, in the assay on S. aureus [2], the “microbicidal activity, Reaction 2 (aged 5 minutes with H2O2)” value is listed as “maintained microbicidal activity” and the “microbicidal activity, Reaction 1 (aged 0 min)” value was “some microbicidal activity”. Moreover, the “effect of ethanolamine on microbicidal activity” value in the assay with S. aureus [3] was “significantly enhances the microbicidal activity of pEPO/H2O2 compositions”.
For `N[C@@H](CO)C(=O)O` [serine, L-serine, reference compound], in the assay on S. aureus [2], the “microbicidal activity, Reaction 2 (aged 5 minutes with H2O2)” value is “only formulations comprising pEPO and ethanolamine or diethanolamine maintained microbicidal activity”; the “microbicidal activity, Reaction 1 (aged 0 min)” value is recorded as “some microbicidal activity”.
As to `OO` [hydrogen peroxide], the “concentration of H2O2 effective to result in a complete kill (as low as)” value in the assay with S. aureus [4] came out at 0.5 mM. The “killing the bacteria by neat hydrogen peroxide” value with S. aureus [4] (89 mM (0.3%), no pEPO, one minute) is listed as “ineffective in killing the bacteria”. Further, in the assay on S. aureus [4] (hydrogen peroxide 0.5 mM with the addition of pEPO, Plate 2), the “kill of the bacteria” value came to 100%.
